Earlier results on one compound are cited in patent publication US7294332B2, “Combination therapy (temozolomide and α-IFN) for advanced cancer” (Schering Corporation, priority 1995, dated 2007).

For series [1], the system named is advanced melanoma. The following applies: patients with advanced melanoma; Journal of Clinical Oncology, Vol 13, No. 4 (April), 1995.
Series [2] relates to advanced melanoma. As to conditions: patients having advanced melanoma; Newlands ES, et al. Br J Cancer 65 (2), 1992.

`Cn1nnc2c(C(N)=O)ncn2c1=O` [Temozolomide, 3,4-dihydro-3-methyl-4-oxoimidazo-[5,1-d]1,2,3,4-tetrazin-8-carboximide]: the “clinical response achieved, % of patients” value in the series with advanced melanoma [1] is given as 21%. Further, in the series on advanced melanoma [2], the “clinical responses achieved, % of patients” value is reported as 17%.
